In one assay the target is T1, BRAF V600E (Homo sapiens, UniProt P15056, V600E).
T1 construct: purchased Invitrogen
Briefly: Z′-LYTE kinase inhibition assay against BRAF V600E (Invitrogen). In kind it is biochemical. The settings on record: 1 μM compound, Z′-LYTE method. Here is the method:
(§1) Inhibitory activities of compounds against BRAF or BRAF V600E were measured by Invitrogen using Z′-LYTE® Method as briefly described in the following.
(§2) 4× Test compounds are dissolved in 1% DMSO. […] ATP solutions are diluted to a 4×ATP working concentration in Kinase Buffer (50 mM HEPES pH 7.5, 0.01% BRIJ-35, 10 mM MgCl2, 1 mM EGTA).
(§3) Reaction starts by 30-second shaking of mixture consisting of 2.5 μL4× test compound, […] and 2.5 μL 4×ATP Solution on Bar-coded Corning, low volume NBS, black 384-well plate (Corning Cat. #3676). Then the mixture is incubated for 60-minute at room temperature for the kinase reaction, followed by addition of 5 μL of a 1:1024 dilution of development reagent A and 30-second plate shake. The mixture is then incubated for another 60-minute at room temperature for development reaction. Finally fluorescence is read by plate reader.

Another assay concerns A375 cells. Briefly: Inhibition of cancer cell growth, MTT assay, A375 cells. In kind it is cell-based. The settings on record: Homo sapiens, A-375, 72 h compound exposure. Here is the method:
(§4) Inhibition of cell growth by compounds was measured using MTT assay (Mosmann, T., Journal of Immunological Methods, 1983, 65, 55-63). Tumor cell lines were purchased from ATCC (American Type Culture Collection, Manassas, Va.). All cell lines were maintained in RPMI 1640 (Hyclone) supplemented with 10% fetal bovine serum (FBS, Hyclone), glutamine (2 mM, Hyclone), and antibiotics (penicillin 100 U/mL and streptomycin 50 μg/mL) at 37° C. in a humidified atmosphere of 5% CO2 in air. Taxol (as a positive control, Sigma) and compounds were dissolved in DMSO (Sigma), and the final concentration of DMSO in the medium was 1%. Tumor cells were plated in 96-well plates at densities of about 4000 cells/well of a 96-well plate and allowed to adhere/grow for 24 h. They were then treated with various concentrations of drug for 72 h. 3-(4,5-Dimethylthiazol-2-yl)-2,5-diphenyltetrazolium bromide (MTT, Sigma) was used to determine the number of viable cells at the time of compound addition and the number of cells remaining after 72 h compound exposure. The number of cells remaining after 72 h was compared to the number of viable cells at the time of compound addition by measuring the absorbance at 570 nm, allowing for the calculation of growth inhibition.
(§5) All concentrations of compounds were tested in triplicate and controls were averaged over 4 wells. IC50 was calculated by plotting the concentration of compound vs the percentage of inhibition in treated wells using GraphPad Prism 5. […] The scale utilized in Table 4 is as follows: +++ less than 1000 nM, ++ between 1000 and 5000 nM, and + greater than 5000 nM.
A general note: Tetrazolium assays rely on reduction of a dye to a coloured formazan, in cell work by metabolically active cells.

For a further assay, the target named is T2, BRAF (Homo sapiens, UniProt P15056).
T2 construct: purchased Invitrogen
T2 sequence (P15056 whole entry): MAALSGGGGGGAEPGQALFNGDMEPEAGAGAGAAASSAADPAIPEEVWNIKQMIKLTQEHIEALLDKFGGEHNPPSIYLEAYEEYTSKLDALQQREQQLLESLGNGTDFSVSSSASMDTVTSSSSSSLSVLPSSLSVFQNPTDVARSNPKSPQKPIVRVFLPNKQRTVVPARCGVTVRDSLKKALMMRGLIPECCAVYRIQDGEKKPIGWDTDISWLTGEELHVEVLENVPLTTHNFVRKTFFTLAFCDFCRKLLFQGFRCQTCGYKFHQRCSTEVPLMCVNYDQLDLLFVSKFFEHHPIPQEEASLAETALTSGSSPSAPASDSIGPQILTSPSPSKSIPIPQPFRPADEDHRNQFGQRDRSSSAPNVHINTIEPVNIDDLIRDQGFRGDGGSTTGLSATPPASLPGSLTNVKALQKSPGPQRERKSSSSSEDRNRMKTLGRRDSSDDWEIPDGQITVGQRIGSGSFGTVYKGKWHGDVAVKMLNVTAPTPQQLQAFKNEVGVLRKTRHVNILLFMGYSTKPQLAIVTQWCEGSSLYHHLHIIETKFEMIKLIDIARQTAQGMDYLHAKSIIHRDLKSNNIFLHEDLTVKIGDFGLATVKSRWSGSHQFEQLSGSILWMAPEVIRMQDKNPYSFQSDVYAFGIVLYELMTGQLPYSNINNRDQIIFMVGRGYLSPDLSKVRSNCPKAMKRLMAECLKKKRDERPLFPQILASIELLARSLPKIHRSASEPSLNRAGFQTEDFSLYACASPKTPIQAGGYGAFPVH
Briefly: Z′-LYTE kinase inhibition assay against BRAF (Invitrogen). In kind it is biochemical. To be noted: 1 μM compound, Z′-LYTE method. The protocol: as §1, §2, §3

The next assay relates to A549 cells. Briefly: Inhibition of cancer cell growth, MTT assay, A549 cells. In kind it is cell-based. To be noted: Homo sapiens, 72 h compound exposure. Here is the method: as §4, §5
In another assay the target is T3, KDR (VEGFR2) (Homo sapiens, UniProt P35968).
T3 construct: purchased Invitrogen
T3 sequence (P35968 20-1356): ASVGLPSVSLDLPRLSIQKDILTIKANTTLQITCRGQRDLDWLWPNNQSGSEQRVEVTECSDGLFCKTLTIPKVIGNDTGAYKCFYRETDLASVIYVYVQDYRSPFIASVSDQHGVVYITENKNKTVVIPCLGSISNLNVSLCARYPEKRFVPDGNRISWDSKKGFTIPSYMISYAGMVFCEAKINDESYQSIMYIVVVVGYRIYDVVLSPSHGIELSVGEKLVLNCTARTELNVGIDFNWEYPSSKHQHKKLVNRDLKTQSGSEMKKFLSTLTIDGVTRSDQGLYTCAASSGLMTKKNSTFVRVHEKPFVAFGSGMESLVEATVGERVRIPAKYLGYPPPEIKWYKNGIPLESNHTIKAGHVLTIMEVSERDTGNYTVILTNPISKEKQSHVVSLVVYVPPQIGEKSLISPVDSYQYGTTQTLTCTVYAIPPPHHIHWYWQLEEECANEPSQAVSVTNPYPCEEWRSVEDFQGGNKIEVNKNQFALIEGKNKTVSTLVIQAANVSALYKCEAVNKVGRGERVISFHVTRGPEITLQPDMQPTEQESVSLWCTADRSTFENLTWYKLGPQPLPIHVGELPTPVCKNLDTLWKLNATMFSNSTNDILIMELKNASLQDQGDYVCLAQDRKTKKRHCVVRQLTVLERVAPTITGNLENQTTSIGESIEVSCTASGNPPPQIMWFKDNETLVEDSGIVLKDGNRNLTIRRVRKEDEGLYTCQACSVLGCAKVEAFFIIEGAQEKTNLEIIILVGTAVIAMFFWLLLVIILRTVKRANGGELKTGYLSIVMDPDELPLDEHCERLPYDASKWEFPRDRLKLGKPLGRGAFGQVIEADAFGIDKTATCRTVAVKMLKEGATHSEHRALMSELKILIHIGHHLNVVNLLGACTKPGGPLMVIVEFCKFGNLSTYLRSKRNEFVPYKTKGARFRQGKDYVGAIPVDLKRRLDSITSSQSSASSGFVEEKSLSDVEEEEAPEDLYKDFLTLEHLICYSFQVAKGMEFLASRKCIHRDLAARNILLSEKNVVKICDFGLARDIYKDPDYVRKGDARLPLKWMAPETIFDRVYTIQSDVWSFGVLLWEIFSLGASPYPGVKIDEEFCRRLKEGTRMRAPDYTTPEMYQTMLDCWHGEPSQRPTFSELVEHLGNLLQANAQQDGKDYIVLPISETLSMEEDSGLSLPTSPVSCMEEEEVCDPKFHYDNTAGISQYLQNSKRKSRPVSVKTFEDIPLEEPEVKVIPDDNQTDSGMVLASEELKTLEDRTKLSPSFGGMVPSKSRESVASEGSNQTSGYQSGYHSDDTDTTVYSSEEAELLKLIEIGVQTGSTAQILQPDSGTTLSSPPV
Briefly: Z′-LYTE kinase inhibition assay against KDR (Invitrogen). It counts as biochemical. To be noted: 1 μM compound, Z′-LYTE method. Here is the method:
Inhibitory activities of compounds against KDR (VEGFR2) were also measured by Invitrogen using Z′-LYTE® Method as described above with the following modification. The 2×KDR (VEGFR2)/Tyr 01 mixture is prepared in 50 mM HEPES pH 7.5, 0.01% BRIJ-35, 10 mM MgCl2, 1 mM EGTA. The final 10 μL Kinase Reaction consists of 0.5-11.7 ng KDR (VEGFR2) and 2 μM Tyr 01 in 50 mM HEPES pH 7.5, 0.01% BRIJ-35, 10 mM MgCl2, 1 mM EGTA. After the 1 hour Kinase Reaction incubation, 5 μL of a 1:256 dilution of Development Reagent B is added. […] The scale utilized in Table 3 is as follows: ++ more than 70% inhibition and + less than 70% inhibition.

As a reminder, the inhibition is the share of the control response that was lost under treatment. As a reminder, the IC50 is the concentration needed to halve the response being measured. Read a high IC50 as lower potency.

T1 sequence (P15056 whole entry V600E): as the sequence (P15056 whole entry) above, with V600E counted along it

Consider `CCCS(=O)(=O)Nc1ccc(F)c(C(=O)c2ccc3nccnc3c2)c1F` [Compound C01, N-(2,4-difluoro-3-(quinoxaline-6-carbonyl)phenyl)propane-1-sulfonamide], for which the inhibition at 1 µM against BRAF V600E was above 89%; against BRAF it was 70 to 89%. The IC50 with A375 cells and in the assay with A549 cells was below 1 µM throughout.
With `CCCS(=O)(=O)Nc1ccc(F)c(C(=O)c2ccc3ncc(-c4ccc(Cl)cc4)nc3c2)c1F` [Compound C02, N-(3-(3-(4-chlorophenyl)quinoxaline-6-carbonyl)-2,4-difluorophenyl)propane-1-sulfonamide], the inhibition at 1 µM against BRAF V600E was above 89%; at BRAF, 70 to 89%. Besides, the half-maximal inhibitory concentration (IC50) with A375 cells and with A549 cells was below 1 µM throughout.
As for `CCCS(=O)(=O)Nc1ccc(F)c(C(=O)c2ccc3ncc(OC)nc3c2)c1F` [Compound C03, N-(2,4-difluoro-3-(3-methoxyquinoxaline-6-carbonyl)phenyl)propane-1-sulfonamide], the inhibition at 1 µM against BRAF V600E is above 89%; on BRAF, 70 to 89%. The IC50 in the assay on A375 cells and in the assay with A549 cells was 1 to 5 µM in each case.
Take `CCCS(=O)(=O)Nc1ccc(F)c(C(=O)c2ccc3ncc(C#N)nc3c2)c1F` [Compound C04, N-(3-(3-cyanoquinoxaline-6-carbonyl)-2,4-difluorophenyl)propane-1-sulfonamide]: the inhibition at 1 µM is above 89% against BRAF V600E and 70 to 89% against BRAF. Further, the IC50 in the assay on A375 cells and in the assay with A549 cells was below 1 µM in each case.
In the assay on A375 cells, `CCCS(=O)(=O)Nc1ccc(F)c(C(=O)c2ccc3ncc(N4CCOCC4)nc3c2)c1F` [Compound C05, N-(2,4-difluoro-3-(3-morpholinoquinoxaline-6-carbonyl)phenyl)propane-1-sulfonamide] yielded an IC50 of 1 to 5 µM.
For the molecule `O=C(Nc1cccc(C(F)(F)F)c1)Nc1ccc(F)c(C(=O)c2ccc3nccnc3c2)c1F` [Compound C06, 1-(2,4-difluoro-3-(quinoxaline-6-carbonyl)phenyl)-3-(3-(trifluoromethyl)phenyl)urea], the inhibition at 1 µM against BRAF V600E is 70 to 89%; against KDR (VEGFR2), below 70%. The half-maximal inhibitory concentration (IC50) in the assay on A375 cells and with A549 cells was above 5 µM each time.
`O=C(Nc1cccc(F)c1)Nc1ccc(F)c(C(=O)c2ccc3nccnc3c2)c1F` [Compound C07, 1-(2,4-difluoro-3-(quinoxaline-6-carbonyl)phenyl)-3-(3-fluorophenyl)urea]: the inhibition at 1 µM against BRAF V600E is 70 to 89%; on KDR (VEGFR2) it was below 70%. Further, the IC50 in the assay with A375 cells was above 5 µM; in the assay on A549 cells, 1 to 5 µM.
On to `O=C(Nc1ccc(Cl)c(C(F)(F)F)c1)Nc1ccc(F)c(C(=O)c2ccc3nccnc3c2)c1F` [Compound C08, 1-(4-chloro-3-(trifluoromethyl)phenyl)-3-(2,4-difluoro-3-(quinoxaline-6-carbonyl)phenyl)urea], for which the inhibition at 1 µM against BRAF V600E and at KDR (VEGFR2) was below 70% throughout. Besides, the half-maximal inhibitory concentration (IC50) with A375 cells was 1 to 5 µM; with A549 cells, above 5 µM.
For `O=C(Nc1ccc(F)c(C(=O)c2ccc3nccnc3c2)c1F)c1cccc(F)c1` [Compound C09, N-(2,4-difluoro-3-(quinoxaline-6-carbonyl)phenyl)-3-fluorobenzamide], at BRAF V600E, the inhibition at 1 µM fell in the range of 70 to 89%. Further, the half-maximal inhibitory concentration (IC50) in the assay with A375 cells and with A549 cells was above 5 µM in each case.
Turning to `O=C(Nc1ccc(F)c(C(=O)c2ccc3nccnc3c2)c1F)c1cccc(C(F)(F)F)c1` [Compound C10, N-(2,4-difluoro-3-(quinoxaline-6-carbonyl)phenyl)-3-(trifluoromethyl)benzamide], the inhibition at 1 µM is 70 to 89% at BRAF V600E and above 70% at KDR (VEGFR2). In addition, the IC50 in the assay with A375 cells and in the assay on A549 cells was above 5 µM throughout.

For the origin of these results see patent publication US9249110B2, “Substituted quinoxalines as B-raf kinase inhibitors” (NEUPHARMA, INC., priority 2011, dated 2016).
